Measured values from the METLIN SMRT retention time set (Domingo-Almenara et al. 2019).

Test: gradient 5% acetonitrile 3 min, to 50% in 2 min, to 85% in 15 min, held 3 min, 100 µL/min
Conditions: column: Zorbax Extend-C18 2.1 x 50 mm; eluents: water / acetonitrile, 0.1% formic acid
Method in brief: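 Over 3 months, pure standards in mixtures of ~100 molecules were run by HPLC coupled to a quadrupole time-of-flight mass spectrometer in positive and negative ionization mode. The column was a Zorbax Extend-C18 (2.1 × 50 mm, 1.8 μm) at 100 μL/min, eluted with water and acetonitrile each holding 0.1% formic acid, with 40 μL dead and 900 μL dwell volumes. Retention time was determined from adduct peaks chosen by software and checked manually.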

Row | Structure (SMILES) | RP-LC retention time [s]
1 | CCOc1cc(C(=O)Nc2nc(-c3ccc4c(c3)NC(=O)CO4)cs2)cc(OCC)c1OCC | 1030
2 | Cc1cc(C)c(S(=O)(=O)NCCc2cn(CC(C)C)c3ncccc23)cc1C | 1040
3 | O=C([C@@H]1C[C@H](F)CN1C(=O)Nc1ccc(Cl)cc1)N1CCCCC1 | 732
4 | O=C(CCS(=O)(=O)c1ccccc1)N1CCN(CC(F)(F)F)CC1 | 711
5 | Cc1ccn2cc(-c3ccc(NS(=O)(=O)c4cccc([N+](=O)[O-])c4)cc3)nc2n1 | 662
6 | COC(=O)c1cccc(C(=O)N2CCN(c3cc(Cl)ccc3C)CC2)n1 | 946
7 | CCCN(CC1CCOC1)C(=O)NCCc1ccccc1 (stereo unspecified) | 791
8 | Cc1oc(C2CCN(S(=O)(=O)c3ccc(C#N)cc3)CC2)nc1C(=O)N1CCCC1 | 872
9 | CSc1cccc(NC(=O)N2CCC(c3nc(C(=O)N4CCCCC4)c(C)o3)CC2)c1 | 828
10 | Cc1cc(C)c(-c2noc(C)n2)c(NC(=O)c2ccc(C)c(F)c2)n1 | 781
11 | O=C(NC1CCCCCC1)C1CC(=O)N(CCc2c[nH]c3ccc(Cl)cc23)C1 (stereo unspecified) | 871
12 | CCn1nccc1C(=O)N1CCC(c2noc(N)c2C)CC1 | 622
13 | CCOc1cccc2sc(N(CCN(C)C)C(=O)c3ccco3)nc12 | 710
14 | COCCN(Cc1ccc(C(C)C)cc1)Cc1cc(=O)n2cccc(C)c2n1 | 728
15 | Cc1nc(-c2cc3ccccc3nc2N2CCN(c3ccccc3)CC2)no1 | 666

Results, then the compound that gave them:

Row | RP-LC retention time [s] | Structure (SMILES)
16 | 656 | Cc1nn(C(C)C(=O)NCCCN(C)C2CCCCC2)c(=O)c2nn(-c3ccccc3)c(C)c12 (stereo unspecified)
17 | 694 | CC1(C)CC(=O)c2cn(-c3ccccc3)c(=O)c(C(=O)N3CCOCC3)c2C1
18 | 1050 | CCn1cc2c3c(cccc31)CN(C(=O)CCc1ccccc1)CC2
19 | 1080 | COc1cccc(-c2ccc(=O)n(CCc3nc(-c4cccc(Br)c4)no3)n2)c1
20 | 781 | CN1c2cc(Cl)ccc2C(=O)NC12CCN(C(=O)Nc1ccc3c(c1)OCCO3)CC2
21 | 927 | c1ccc(Cc2nn3c(CSc4ccccc4)nnc3s2)cc1
22 | 1030 | O=C(Cc1ccccc1Br)N1CCc2cc(-c3ccno3)ccc21
23 | 691 | Cc1cccc(CS(=O)(=O)N(CCc2cccs2)Cc2cccnc2)c1
24 | 629 | C[C@@H](O)[C@H](NC(=O)c1ccc(C#Cc2ccc(CN3CCOCC3)cc2)cc1)C(=O)NO
25 | 598 | O=C(c1cnn2c(-c3ccc4c(c3)OCO4)ccnc12)N1CCN(c2ccccn2)CC1
26 | 596 | Cc1c(NC(=O)C2CCC2)c(=O)n(-c2ccccc2)n1C
27 | 734 | O=C(Nc1cc(-c2cccs2)nn1CCO)C1(c2ccccc2)CCOCC1
28 | 1190 | COC(=O)c1ccccc1Nc1c(-c2ccc(C)cc2)nc2cnc(Br)cn12
29 | 797 | O=C(Cn1c(=O)c2cc(-c3ccco3)nn2c2ncccc21)NCCc1ccccc1
30 | 921 | CCCn1cc(C2=CCN(S(=O)(=O)c3ccc(OC)c(Cl)c3)CC2)c2cccnc21
31 | 960 | CCCCNC(=O)C1Cc2ccccc2CN1S(=O)(=O)c1ccccc1 (stereo unspecified)
32 | 863 | COc1ccccc1C(=O)N1CCC2(CC1)N=C(c1ccc(Br)cc1)C(=O)N2
33 | 710 | CC(=O)Nc1ccc(C2(C(=O)NCc3cccs3)CCC2)cc1
34 | 676 | O=C(Nc1ccc2c(c1)OCO2)C1CCN(c2cc(N3CCSCC3)ncn2)CC1
35 | 810 | CC1(C)COc2ccc(NC(=O)c3c(F)cccc3Cl)cc2NC1=O
36 | 1280 | Cc1ccc(Cn2c(=O)c3sccc3n(Cc3nc(-c4ccc(OC(C)C)cc4)no3)c2=O)cc1
